In ChEMBL document CHEMBL5036301, “Heteroaryl ether analogues of an antileishmanial 7-substituted 2-nitroimidazooxazine lead afford attenuated hERG risk: In vitro and in vivo appraisal” (Eur J Med Chem, 2021):
Converted amounts (≈) assume the structure as drawn. One block for each molecule: values may come before it.

Legend:
Leishmania infantum [1] = assay: Antileishmanial activity against Leishmania infantum amastigotes infected in golden hamster assessed as reduction in parasite load in bone marrow tissue at 50 mg/kg, po administered once daily for 5 days relative to control; assay type: functional; details: 120 h, time 5 day
Leishmania infantum [2] = assay: Antileishmanial activity against Leishmania infantum amastigotes infected in golden hamster assessed as reduction in parasite load in spleen tissue at 50 mg/kg, po administered once daily for 5 days relative to control; assay type: functional; details: 120 h, time 5 day
Leishmania donovani [3] = assay: Antileishmanial activity against Leishmania donovani amastigotes infected in BALB/C mouse assessed as reduction in parasite burden in liver tissue at 12.5 mg/kg, po administered once per day for 5 days relative to control; assay type: functional; details: 120 h, time 5 day
Leishmania infantum [4] = assay: Antileishmanial activity against Leishmania infantum amastigotes infected in golden hamster assessed as reduction in parasite load in liver tissue at 50 mg/kg, po administered once daily for 5 days relative to control; assay type: functional; details: 120 h, time 5 day
in vivo [5] = details: mouse, po, 25 mg/kg
Leishmania donovani [6] = assay: Antileishmanial activity against Leishmania donovani amastigotes infected in BALB/C mouse assessed as reduction in parasite burden in liver tissue at 50 mg/kg, po administered once per day for 5 days relative to control; assay type: functional; details: 120 h, time 5 day
MRC5 = assay: Cytotoxicity against human MRC5 cells assessed as cell viability after 72 hrs by fluorimetric analysis; assay type: ADME, cell-based; details: MRC5, 72 h
[7] = AUClast in hamster at 41 to 51 mg/kg, po measured upto 24 hrs LC-MS/MS analysis; details: chinese hamster, in vivo
Leishmania infantum [8] = assay: Antileishmanial activity against Leishmania infantum MHOM/MA(BE)/67 amastigotes infected in macrophages assessed as reduction in parasite burden by giemsa staining based microscopic analysis; assay type: functional, organism-based
Trypanosoma cruzi = assay: Antitrypanosomal activity against Trypanosoma cruzi Tulahuen CL2 infected in human MRC-5 cells assessed as parasite growth; assay type: functional, organism-based; details: Tulahuen CL2, MRC5
[9] = Kinetic solubility of compound in water at pH7 by HPLC analysis; details: pH 7
[10] = Half life in mouse at 25 mg/kg, po measured upto 24 hrs LC-MS/MS analysis; details: in vivo
in vivo [11] = details: mouse, po, 25 mg/kg; remark: listed apart in the source
in vivo [12] = details: chinese hamster, po
in vivo [13] = details: chinese hamster, po; remark: listed apart in the source
[14] = AUClast in mouse at 25 mg/kg, po measured upto 24 hrs LC-MS/MS analysis; details: in vivo
Leishmania infantum [15] = assay: Antileishmanial activity against Leishmania infantum amastigotes infected in golden hamster assessed as reduction in parasite load in bone marrow tissue at 40 mg/kg, po administered once daily for 5 days relative to control; assay type: functional; details: 120 h, time 5 day
Leishmania infantum [16] = assay: Antileishmanial activity against Leishmania infantum amastigotes infected in golden hamster assessed as reduction in parasite load in liver tissue at 40 mg/kg, po administered once daily for 5 days relative to control; assay type: functional; details: 120 h, time 5 day
Leishmania infantum [17] = assay: Antileishmanial activity against Leishmania infantum amastigotes infected in golden hamster assessed as reduction in parasite load in spleen tissue at 40 mg/kg, po administered once daily for 5 days relative to control; assay type: functional; details: 120 h, time 5 day
Leishmania donovani [18] = assay: Antileishmanial activity against Leishmania donovani amastigotes infected in BALB/C mouse assessed as reduction in parasite burden in liver tissue at 6.25 mg/kg, po administered once per day for 5 days relative to control; assay type: functional; details: 120 h, time 5 day
Leishmania infantum [19] = assay: Antileishmanial activity against Leishmania infantum amastigotes infected in golden hamster assessed as reduction in parasite load in liver tissue at 25 mg/kg, po administered once daily for 5 days relative to control; details: in Mesocricetus auratus, 120 h, read-out: INH
Leishmania infantum [20] = assay: animal or person; details: in Mesocricetus auratus, po, 120 h, read-out: INH
Description: Antileishmanial activity against Leishmania infantum amastigotes infected in golden hamster assessed as reduction in parasite load in bone marrow tissue at 12.5 mg/kg, po administered once daily for 5 days relative to control

Leishmania donovani [21] = assay: Antileishmanial activity against Leishmania donovani amastigotes infected in BALB/C mouse assessed as reduction in parasite burden in liver tissue at 3.13 mg/kg, po administered once per day for 5 days relative to control; assay type: functional; details: 120 h, time 5 day
Leishmania infantum [22] = assay: animal or person; details: in Mesocricetus auratus, po, 120 h, read-out: INH; remark: listed apart in the source
Description: Antileishmanial activity against Leishmania infantum amastigotes infected in golden hamster assessed as reduction in parasite load in spleen tissue at 12.5 mg/kg, po administered once daily for 5 days relative to control

Leishmania donovani [23] = assay: Antileishmanial activity against Leishmania donovani amastigotes infected in mouse J774A.1 cells incubated for 72 hrs by luciferase assay; assay type: functional, organism-based; details: J774.A1, 72 h
Leishmania infantum [24] = assay: Antileishmanial activity against Leishmania infantum amastigotes infected in golden hamster assessed as reduction in parasite load in spleen tissue at 25 mg/kg, po administered once daily for 5 days relative to control; details: in Mesocricetus auratus, 120 h, read-out: INH
Leishmania infantum [25] = assay: animal or person; details: in Mesocricetus auratus, po, 120 h, read-out: INH; remark: listed apart in the source
Description: Antileishmanial activity against Leishmania infantum amastigotes infected in golden hamster assessed as reduction in parasite load in liver tissue at 12.5 mg/kg, po administered once daily for 5 days relative to control

Leishmania donovani [26] = assay: Antileishmanial activity against Leishmania donovani amastigotes infected in BALB/C mouse assessed as reduction in parasite burden in liver tissue at 25 mg/kg, po administered once per day for 5 days relative to control; details: 120 h, read-out: INH

SMILES: CC1(COc2ccc(OC(F)(F)F)cc2)CCn2cc([N+](=O)[O-])nc2O1 (stereo unspecified)
inhibition in vivo at 50 mg/kg (Leishmania infantum [1]): 99.5% | inhibition in vivo at 50 mg/kg (Leishmania infantum [2]): 99.7% | inhibition in vivo at 12.5 mg/kg (Leishmania donovani [3]): > 99% | inhibition in vivo at 50 mg/kg (Leishmania infantum [4]): 100%

Tmax at 24 h (in vivo [5]): 2 h | AUC(0-t) at 24 h [7]: 924 ng·h/mL | IC50 (Leishmania infantum [8]): 750 nM | solubility kinetic [9]: 21 µg/mL (≈ 58.6 µM) | half-life at 24 h [10]: 1.5 h | Cmax at 24 h (in vivo [11]): 33000 ng/mL | Cmax at 24 h (in vivo [12]): 310 ng/mL | Tmax at 24 h (in vivo [13]): 4.3 h | AUC(0-t) at 24 h [14]: 183000 ng·h/mL
SMILES: C[C@@]1(COc2ccc(C(F)(F)F)cn2)CCn2cc([N+](=O)[O-])nc2O1
inhibition in vivo at 50 mg/kg (Leishmania infantum [1]): 37.4% | inhibition in vivo at 50 mg/kg (Leishmania donovani [6]): 38% | IC50 (MRC5): > 64000 nM | inhibition in vivo at 50 mg/kg (Leishmania infantum [2]): 52.3% | IC50 (Trypanosoma cruzi): 980 nM | inhibition in vivo at 50 mg/kg (Leishmania infantum [4]): 46.5%

SMILES: CCCCCCCCCCCCCCCCOP(=O)([O-])OCC[N+](C)(C)C [MILTEFOSINE]
inhibition in vivo at 40 mg/kg (Leishmania infantum [15]): 94.9% | inhibition in vivo at 40 mg/kg (Leishmania infantum [16]): 98.5% | inhibition in vivo at 40 mg/kg (Leishmania infantum [17]): 99.7%

SMILES: C[C@]1(COc2ccc(OC(F)(F)F)cc2)Cn2cc([N+](=O)[O-])nc2O1
inhibition in vivo at 12.5 mg/kg (Leishmania donovani [3]): > 99% | inhibition in vivo at 6.25 mg/kg (Leishmania donovani [18]): > 99%

SMILES: C[C@@]1(COc2ccc(OC(F)(F)F)cc2)CCn2cc([N+](=O)[O-])nc2O1
inhibition in vivo at 50 mg/kg (Leishmania infantum [1]): 99.7% | inhibition in vivo at 25 mg/kg (Leishmania infantum [19]): 97.2% | inhibition in vivo at 12.5 mg/kg (Leishmania infantum [20]): 0% | inhibition in vivo at 3.13 mg/kg (Leishmania donovani [21]): 18% | inhibition in vivo at 12.5 mg/kg (Leishmania infantum [22]): 44.4% | inhibition in vivo at 50 mg/kg (Leishmania infantum [2]): 99.9% | IC50 (Leishmania donovani [23]): 370 nM | inhibition in vivo at 25 mg/kg (Leishmania infantum [24]): 92.3% | inhibition in vivo at 12.5 mg/kg (Leishmania infantum [25]): 47.3% | inhibition in vivo at 25 mg/kg (Leishmania donovani [26]): 66% | inhibition in vivo at 50 mg/kg (Leishmania infantum [4]): 100% | inhibition in vivo at 6.25 mg/kg (Leishmania donovani [18]): 49%
